Consider 27 compounds from US10899738B2 (THE REGENTS OF THE UNIVERSITY OF MICHIGAN, priority 2016, dated 2021).

Sequence of menin protein (O00255 whole entry): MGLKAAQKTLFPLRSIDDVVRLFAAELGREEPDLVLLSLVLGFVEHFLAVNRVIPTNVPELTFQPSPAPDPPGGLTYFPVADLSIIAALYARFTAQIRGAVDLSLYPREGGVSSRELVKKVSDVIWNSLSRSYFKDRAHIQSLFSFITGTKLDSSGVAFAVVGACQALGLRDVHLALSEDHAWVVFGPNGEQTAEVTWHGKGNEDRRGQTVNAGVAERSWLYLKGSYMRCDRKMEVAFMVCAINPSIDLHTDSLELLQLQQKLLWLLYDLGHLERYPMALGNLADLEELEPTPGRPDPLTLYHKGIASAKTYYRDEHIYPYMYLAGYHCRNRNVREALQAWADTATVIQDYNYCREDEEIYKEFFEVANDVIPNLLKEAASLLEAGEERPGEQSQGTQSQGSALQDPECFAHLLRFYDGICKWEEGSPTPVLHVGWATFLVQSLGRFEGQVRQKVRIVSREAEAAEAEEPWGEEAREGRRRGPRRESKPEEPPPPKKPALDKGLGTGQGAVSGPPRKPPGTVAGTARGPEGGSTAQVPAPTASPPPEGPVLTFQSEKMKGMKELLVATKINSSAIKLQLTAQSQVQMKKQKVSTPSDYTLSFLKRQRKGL

The first experiment deals with menin protein (Homo sapiens (Human), UniProt O00255). Briefly: biochemical. In kind it is binding. Particulars: FP competitive binding; menin protein 4 nM, FAM-MM2 probe 2 nM. The gist of the method:
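Competitive fluorescence polarization assay using FAM-labelled MLL1 peptide probe FAM-MM2 (2 nM final) preincubated with menin (4 nM final) in PBS with 0.02% bovine γ-globulin, 4% DMSO and 0.01% Triton X-100. Compounds were added and incubated 30 min at room temperature. IC50 came from nonlinear regression of competition curves, with Ki also derived.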
Consider `c1ccc(CN2CC(C3(C4CCCC4)NCCc4ccccc43)C2)cc1` (stereo not drawn) [compound 57, 1-(1-benzylazetidin-3-yl)-1-cyclopentyl-1,2,3,4-tetrahydroisoquinoline], for which the “Menin Binding Affinity IC50 (μM)” value is given as “No inhibition”.

Staying with this experiment, now noted: FP competitive binding; menin protein 4 nM, FAM-MM2 probe 2 nM; read-out: Menin Binding Affinity IC50.
Broadly, the IC50 is the point on the concentration scale where inhibition reaches its midpoint. As to `COCC[C@@H]1CCC[C@H]1C(C#N)(c1ccccc1)C1CCN(CC2CN(c3ccc(S(=O)(=O)c4ccnc(C)c4)cc3)C2)CC1` (mixture of isomers) [compound 337, rac-2-((1R,2S)-2-(2-methoxyethyl)cyclopentyl)-2-(1-((1-(4-((2-methylpyridin-4-yl)sulfonyl)phenyl)azetidin-3-yl)methyl)piperidin-4-yl)-2-phenylacetonitrile], the IC50 worked out at 25800 nM.

For `O=S(=O)(c1ccncc1)c1ccc(N2CC(CN3CCC(C4(C5CCCC5)CN(CCN5CCOCC5)Cc5ccccc54)CC3)C2)cc1` (stereo not drawn) [compound 54, 4-(2-(4-cyclopentyl-4-(1-((1-(4-(pyridin-4-ylsulfonyl)phenyl)azetidin-3-yl)methyl)piperidin-4-yl)-3,4-dihydroisoquinolin-2(1H)-yl)ethyl)morpholine], the 50% inhibitory concentration (IC50) turned out to be 11 nM.

As for `CN1COCN([C@@H]2CCC[C@H]2C(C#N)(c2ccccc2)C2CCN(CC3CN(c4ccc(S(=O)(=O)c5ccncc5)cc4)C3)CC2)C1=O` (mixture of isomers) [compound 280, rac-2-((1S,2R)-2-(5-methyl-4-oxo-1,3,5-oxadiazinan-3-yl)cyclopentyl)-2-phenyl-2-(1-((1-(4-(pyridin-4-ylsulfonyl)phenyl)azetidin-3-yl)methyl)piperidin-4-yl)acetonitrile], the 50% inhibitory concentration (IC50) amounted to 1400 nM.

As to `CC(=O)O[C@@H]1CCC[C@H]1C(C#N)(c1ccccc1)C1CCN(CC2CN(c3ccc(S(=O)(=O)c4ccncc4)cc3)C2)CC1` (mixture of isomers) [compound 186, rac-(1R,2S)-2-(cyano(phenyl)(1-((1-(4-(pyridin-4-ylsulfonyl)phenyl)azetidin-3-yl)methyl)piperidin-4-yl)methyl)cyclopentyl acetate], the concentration for half-maximal inhibition (IC50) worked out at 1000 nM.

For the compound `CS(=O)(=O)CO[C@H]1CCC[C@@H]1C(C#N)(c1ccccc1)C1CCN(CC2CN(c3ccc(S(=O)(=O)c4ccncc4)cc3)C2)CC1` (mixture of isomers) [compound 253, rac-2-((1R,2S)-2-((methylsulfonyl)methoxy)cyclopentyl)-2-phenyl-2-(1-((1-(4-(pyridin-4-ylsulfonyl)phenyl)azetidin-3-yl)methyl)piperidin-4-yl)acetonitrile], the 50% inhibitory concentration (IC50) worked out at 14400 nM.

In the case of `N#Cc1cc2ccc(C(=O)N3CCC(CC4(C5CCCC5)NCCc5ccccc54)CC3)cc2[nH]1` (stereo not drawn) [compound 118, 6-(4-((1-cyclopentyl-1,2,3,4-tetrahydroisoquinolin-1-yl)methyl)piperidine-1-carbonyl)-1H-indole-2-carbonitrile], the half-inhibitory concentration (IC50) amounted to 21800 nM.

As to `CNC(=O)O[C@@H]1CCC[C@H]1C(Cn1cccc1)(c1ccccc1)C1CCN(CC2CN(c3ccc(S(=O)(=O)c4ccccc4)cc3)C2)CC1` (mixture of isomers) [compound 358, rac-(1R,2S)-2-(1-phenyl-1-(1-((1-(4-(phenylsulfonyl)phenyl)azetidin-3-yl)methyl)piperidin-4-yl)-2-(1H-pyrrol-1-yl)ethyl)cyclopentyl methylcarbamate], the IC50 was determined as 221 nM.

Take `CCC(C)CC1(C2CCN(CCCOc3ccc(C#N)cc3)CC2)NCCc2ccccc21` (stereo not drawn) [compound 172, 4-(3-(4-(1-(2-methylbutyl)-1,2,3,4-tetrahydroisoquinolin-1-yl)piperidin-1-yl)propoxy)benzonitrile]: the 50% inhibitory concentration (IC50) came to 11200 nM.

As for `CN1CCC(C2(C3CCCC3)NCCc3ccccc32)CC1` (stereo not drawn) [compound 75, 1-cyclopentyl-1-(1-methylpiperidin-4-yl)-1,2,3,4-tetrahydroisoquinoline], the IC50 is 142000 nM.

For `N#CC(c1ccccc1)(C1CCCC1)C1CCN(CCCOc2ccc(S(=O)(=O)c3ccccc3)cc2)CC1` (stereo not drawn) [compound 126, 2-cyclopentyl-2-phenyl-2-(1-(3-(4-(phenylsulfonyl)phenoxy)propyl)piperidin-4-yl)acetonitrile], the IC50 came out at 58400 nM.

Consider `N#Cc1ccc(OCCCN2CCC(C3NCCc4ccccc43)CC2)cc1` (stereo not drawn) [compound 305, 4-(3-(4-(1,2,3,4-tetrahydroisoquinolin-1-yl)piperidin-1-yl)propoxy)benzonitrile], for which the IC50 is 42100 nM.

`CNC(=O)O[C@H]1CCC[C@@H]1C(CN1CCCC1)(c1ccccc1)C1CCN(CC2CN(c3ccc(S(=O)(=O)c4ccccc4)cc3)C2)CC1` (mixture of isomers) [compound 361, rac-(1S,2R)-2-(1-phenyl-1-(1-((1-(4-(phenylsulfonyl)phenyl)azetidin-3-yl)methyl)piperidin-4-yl)-2-(pyrrolidin-1-yl)ethyl)cyclopentyl methylcarbamate]: the IC50 is 63 nM.

Take `CC(=O)O[C@@H]1CCC[C@H]1C1(C2CCN(CCCOc3ccc(C#N)cc3)CC2)CN(C)Cc2ccc(F)cc21` (mixture of isomers) [compound 315, rac-(1R,2S)-2-(4-(1-(3-(4-cyanophenoxy)propyl)piperidin-4-yl)-6-fluoro-2-methyl-1,2,3,4-tetrahydroisoquinolin-4-yl)cyclopentyl acetate]: the concentration for half-maximal inhibition (IC50) turned out to be 131 nM.

With `CNC(=O)O[C@@H]1CCC[C@H]1C(C#N)(c1ccccc1)C1CCN(CC2CN(c3ccc(S(=O)(=O)c4ccncc4)cc3)C2)CC1` (mixture of isomers) [compound 216, rac-(1R,2S)-2-(cyano(phenyl)(1-((1-(4-(pyridin-4-ylsulfonyl)phenyl)azetidin-3-yl)methyl)piperidin-4-yl)methyl)cyclopentyl methylcarbamate], the IC50 turned out to be 396 nM.

Turning to `CN1Cc2cccc(Cl)c2C(C2CCCC2)(C2CCN(CCCOc3ccc(C#N)cc3)CC2)C1` (stereo not drawn) [compound 34, 4-(3-(4-(5-chloro-4-cyclopentyl-2-methyl-1,2,3,4-tetrahydroisoquinolin-4-yl)piperidin-1-yl)propoxy)benzonitrile], the IC50 stood at 1800 nM.

As to `N#Cc1ccc(N2CCC(N3CCC(C4(C5CCCC5)NCCc5ccccc54)CC3)CC2)cc1` (stereo not drawn) [compound 55, 4-(4-(1-cyclopentyl-1,2,3,4-tetrahydroisoquinolin-1-yl)-[1,4′-bipiperidin]-1′-yl)benzonitrile], the IC50 is 669 nM.

In the case of `CNC(=O)O[C@H]1CCC[C@@H]1C(C#N)(c1ccccc1)C1CCN(CC2CN(c3ccc(S(=O)(=O)C4CC4)cc3)C2)CC1` (mixture of isomers) [compound 226, rac-(1S,2R)-2-(cyano(1-((1-(4-(cyclopropylsulfonyl)phenyl)azetidin-3-yl)methyl)piperidin-4-yl)(phenyl)methyl)cyclopentyl methylcarbamate], the IC50 was 14 nM.

In the case of `CCO[C@@H]1CCC[C@H]1C(C#N)(c1ccccc1)C1CCN(CC2CN(c3ccc(S(C)(=O)=O)cc3)C2)CC1` (mixture of isomers) [compound 189, rac-2-((1S,2R)-2-ethoxycyclopentyl)-2-(1-((1-(4-(methylsulfonyl)phenyl)azetidin-3-yl)methyl)piperidin-4-yl)-2-phenylacetonitrile], the IC50 was determined as 20500 nM.

As for `CC(=O)O[C@H]1CCC[C@@H]1C(C#N)(c1ccccc1F)C1CCN(CCCOc2ccc(C#N)cc2)CC1` (mixture of isomers) [compound 308, rac-(1S,2R)-2-(cyano(1-(3-(4-cyanophenoxy)propyl)piperidin-4-yl)(2-fluorophenyl)methyl)cyclopentyl acetate], the IC50 came out at 66 nM.

As to `CC(=O)N[C@@H]1CCC[C@H]1C1(C2CCN(CC3CN(c4ccc(S(=O)(=O)c5cnn(C)c5)cc4)C3)CC2)CNCc2ccccc21` (mixture of isomers) [compound 287, rac-N-((1R,2S)-2-(4-(1-((1-(4-((1-methyl-1H-pyrazol-4-yl)sulfonyl)phenyl)azetidin-3-yl)methyl)piperidin-4-yl)-1,2,3,4-tetrahydroisoquinolin-4-yl)cyclopentyl)acetamide], the IC50 came to 247 nM.

Regarding `O=C(c1ccn(-c2ccc(S(=O)(=O)C3CC3)cc2)c1)N1CCC(C2(C3CCCC3)NCCc3ccccc32)CC1` (stereo not drawn) [compound 122, (4-(1-cyclopentyl-1,2,3,4-tetrahydroisoquinolin-1-yl)piperidin-1-yl)(1-(4-(cyclopropylsulfonyl)phenyl)-1H-pyrrol-3-yl)methanone], the 50% inhibitory concentration (IC50) is 57500 nM.

With `O=C(CN1CCC(C2(C3CCCC3)NCCc3ccccc32)CC1)N1CCc2ccccc2C1` (stereo not drawn) [compound 84, 2-(4-(1-cyclopentyl-1,2,3,4-tetrahydroisoquinolin-1-yl)piperidin-1-yl)-1-(3,4-dihydroisoquinolin-2(1H)-yl)ethan-1-one], the half-inhibitory concentration (IC50) worked out at 8200 nM.

Take `COC(=O)N1Cc2ccccc2C(C2CCN(CCCOc3ccc(C#N)cc3)CC2)([C@H]2CCC[C@@H]2OC)C1` (mixture of isomers) [compound 324, methyl rac-4-(1-(3-(4-cyanophenoxy)propyl)piperidin-4-yl)-4-((1R,2S)-2-methoxycyclopentyl)-3,4-dihydroisoquinoline-2(1H)-carboxylate]: the IC50 amounted to 9600 nM.

Turning to `CNC(=O)N[C@@H]1CCC[C@H]1C(CNC(=O)c1cocn1)(c1ccccc1)C1CCN(CC2CN(c3ccc(C#N)cc3)C2)CC1` (mixture of isomers) [compound 379, rac-N-(2-(1-((1-(4-cyanophenyl)azetidin-3-yl)methyl)piperidin-4-yl)-2-((1S,2R)-2-(3-methylureido)cyclopentyl)-2-phenylethyl)oxazole-4-carboxamide], the IC50 stood at 3800 nM.

In the case of `N#Cc1cc2cc(CCN3CCC(C4(C5CCCC5)NCCc5ccccc54)CC3)ccc2[nH]1` (stereo not drawn) [compound 66, 5-(2-(4-(1-cyclopentyl-1,2,3,4-tetrahydroisoquinolin-1-yl)piperidin-1-yl)ethyl)-1H-indole-2-carbonitrile], the IC50 worked out at 1100 nM.

Take `CO[C@@H]1CCC[C@H]1C(C#N)(c1ccccc1)C1CCN(CCCOc2ccc(C#N)cc2)CC1` (mixture of isomers) [compound 175, rac-4-(3-(4-(cyano((1S,2R)-2-methoxycyclopentyl)(phenyl)methyl)piperidin-1-yl)propoxy)benzonitrile]: the IC50 worked out at 8800 nM.
